The source of these data is patent US20220009920A1 (GB005, Inc., priority 2020, published 2022).

Like-named read-outs stand apart in the source and are kept apart here.

What all share (assay): Large panel kinase profiling
Common to all, as to assay type: biochemical

Assay [1] deals with T1, FLT1 (Homo sapiens, UniProt P17948).
T1 construct: AssayQuant Technologies, Inc. (service provider)
The following applies: 1 μM test article, 1 mM ATP. Put shortly: (§1)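 Continuous-read kinase assay: chelation-sensor peptide, 1 mM ATP, compound at 1 μM. Plates kept at 30° C.; fluorescence sampled at 1-min intervals (360/485 nm).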

The target of assay [2] is T2, MARK4 (Homo sapiens, UniProt Q96L34).
T2 construct: AssayQuant Technologies, Inc. (assay service)
T2 sequence (Q96L34 1-752): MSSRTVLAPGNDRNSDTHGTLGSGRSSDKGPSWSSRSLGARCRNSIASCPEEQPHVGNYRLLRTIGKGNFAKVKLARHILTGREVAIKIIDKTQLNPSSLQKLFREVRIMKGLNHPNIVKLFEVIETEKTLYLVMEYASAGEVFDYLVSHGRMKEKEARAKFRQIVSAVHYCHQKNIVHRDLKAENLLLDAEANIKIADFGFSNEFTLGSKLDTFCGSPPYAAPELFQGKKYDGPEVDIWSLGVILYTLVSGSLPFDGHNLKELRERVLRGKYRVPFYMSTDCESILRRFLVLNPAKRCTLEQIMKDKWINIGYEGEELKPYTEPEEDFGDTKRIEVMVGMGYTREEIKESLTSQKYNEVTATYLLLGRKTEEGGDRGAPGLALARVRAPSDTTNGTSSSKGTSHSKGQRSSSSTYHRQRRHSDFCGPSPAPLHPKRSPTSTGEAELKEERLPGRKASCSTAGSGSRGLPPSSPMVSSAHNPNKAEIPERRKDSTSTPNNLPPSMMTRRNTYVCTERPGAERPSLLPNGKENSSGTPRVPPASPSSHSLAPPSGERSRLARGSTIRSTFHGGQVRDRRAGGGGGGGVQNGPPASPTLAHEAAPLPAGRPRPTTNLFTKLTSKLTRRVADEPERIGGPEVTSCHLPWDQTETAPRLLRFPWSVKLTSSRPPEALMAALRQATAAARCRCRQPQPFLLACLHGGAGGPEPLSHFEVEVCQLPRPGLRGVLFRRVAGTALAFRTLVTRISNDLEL
The following applies: 1 μM test article, 1 mM ATP. The procedure, abridged: as §1

The target of assay [3] is PTK2B (Homo sapiens, UniProt Q14289). The procedure, abridged: as §1
PTK2B, sequence (Q14289 whole entry, species assumed): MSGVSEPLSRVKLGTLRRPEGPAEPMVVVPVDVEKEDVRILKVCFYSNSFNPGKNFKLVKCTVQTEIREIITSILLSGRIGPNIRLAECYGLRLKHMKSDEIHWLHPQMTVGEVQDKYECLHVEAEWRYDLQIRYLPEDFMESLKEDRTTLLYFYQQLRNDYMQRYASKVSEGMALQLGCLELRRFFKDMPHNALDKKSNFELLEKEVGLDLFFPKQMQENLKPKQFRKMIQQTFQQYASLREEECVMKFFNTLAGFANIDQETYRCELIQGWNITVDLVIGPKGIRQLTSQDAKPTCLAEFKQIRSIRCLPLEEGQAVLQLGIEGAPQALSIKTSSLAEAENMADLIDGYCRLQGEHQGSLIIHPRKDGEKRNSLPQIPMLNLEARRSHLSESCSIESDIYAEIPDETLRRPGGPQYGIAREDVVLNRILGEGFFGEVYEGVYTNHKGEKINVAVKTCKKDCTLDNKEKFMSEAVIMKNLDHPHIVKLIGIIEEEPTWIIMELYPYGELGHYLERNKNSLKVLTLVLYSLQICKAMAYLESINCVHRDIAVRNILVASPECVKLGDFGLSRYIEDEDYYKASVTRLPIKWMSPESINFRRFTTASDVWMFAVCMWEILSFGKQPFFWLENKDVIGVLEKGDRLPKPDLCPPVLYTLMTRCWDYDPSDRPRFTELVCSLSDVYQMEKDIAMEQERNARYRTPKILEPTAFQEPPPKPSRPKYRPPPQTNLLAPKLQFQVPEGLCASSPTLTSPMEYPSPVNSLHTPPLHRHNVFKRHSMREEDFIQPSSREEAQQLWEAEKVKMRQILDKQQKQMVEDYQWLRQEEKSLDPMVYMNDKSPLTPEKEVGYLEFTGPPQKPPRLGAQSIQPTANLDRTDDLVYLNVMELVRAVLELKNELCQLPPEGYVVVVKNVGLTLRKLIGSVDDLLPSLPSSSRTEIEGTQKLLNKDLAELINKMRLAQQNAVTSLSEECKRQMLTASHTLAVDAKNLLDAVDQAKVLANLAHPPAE
Assay [4] has as its target LYNB (Homo sapiens, UniProt P07948). The settings on record: 1 μM test article, 1 mM ATP. The procedure, abridged:
as §1

The target in assay [5] is T3, MAPKAPK5/MK5 (Homo sapiens, UniProt Q8IW41).
T3 construct: AssayQuant Technologies, Inc. (service provider)
T3 sequence (Q8IW41 1-473): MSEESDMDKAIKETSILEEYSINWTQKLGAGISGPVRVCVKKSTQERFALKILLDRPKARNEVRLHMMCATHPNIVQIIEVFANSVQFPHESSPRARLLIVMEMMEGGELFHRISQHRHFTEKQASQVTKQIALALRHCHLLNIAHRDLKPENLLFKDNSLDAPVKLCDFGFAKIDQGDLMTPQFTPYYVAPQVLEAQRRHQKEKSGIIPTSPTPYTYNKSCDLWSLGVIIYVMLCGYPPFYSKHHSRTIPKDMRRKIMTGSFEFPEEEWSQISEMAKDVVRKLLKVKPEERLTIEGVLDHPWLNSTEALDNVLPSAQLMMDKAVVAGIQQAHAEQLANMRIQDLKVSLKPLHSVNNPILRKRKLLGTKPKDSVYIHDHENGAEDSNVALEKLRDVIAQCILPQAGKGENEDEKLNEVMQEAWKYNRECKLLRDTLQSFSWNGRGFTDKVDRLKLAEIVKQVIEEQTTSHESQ
The following applies: 1 μM test article, 1 mM ATP. The procedure, abridged:
as §1

Assay [6] deals with T4, CDK6/D1 (Homo sapiens, UniProt Q00534).
T4 construct: AssayQuant Technologies, Inc. (ran the panel)
T4 sequence (Q00534 whole entry, species assumed): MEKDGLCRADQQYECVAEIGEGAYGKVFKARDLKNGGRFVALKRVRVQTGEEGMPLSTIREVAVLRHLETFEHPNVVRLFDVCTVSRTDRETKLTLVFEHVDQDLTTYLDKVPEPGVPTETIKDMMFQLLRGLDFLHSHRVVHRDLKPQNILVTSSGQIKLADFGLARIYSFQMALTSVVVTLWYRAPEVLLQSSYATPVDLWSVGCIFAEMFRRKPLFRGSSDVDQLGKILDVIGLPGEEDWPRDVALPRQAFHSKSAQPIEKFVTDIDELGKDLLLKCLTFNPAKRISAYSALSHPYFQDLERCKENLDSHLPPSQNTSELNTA
T4 sequence (P24385 whole entry partner, species assumed): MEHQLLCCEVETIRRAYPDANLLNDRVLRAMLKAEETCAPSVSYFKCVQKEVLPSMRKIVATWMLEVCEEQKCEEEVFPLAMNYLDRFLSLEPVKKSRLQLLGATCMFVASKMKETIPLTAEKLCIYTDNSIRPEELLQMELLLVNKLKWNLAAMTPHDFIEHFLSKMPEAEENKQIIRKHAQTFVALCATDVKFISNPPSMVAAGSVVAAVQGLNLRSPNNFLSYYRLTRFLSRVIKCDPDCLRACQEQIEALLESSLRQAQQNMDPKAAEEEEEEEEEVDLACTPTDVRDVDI
The settings on record: 1 μM test article, 1 mM ATP. The procedure, abridged:
as §1

Assay [7] concerns the target T5, GRK6 (Homo sapiens, UniProt P43250).
T5 construct: AssayQuant Technologies, Inc. (service provider)
The settings on record: 1 μM test article, 1 mM ATP. The procedure, abridged:
as §1

Assay [8] has as its target T6, MST1R/RON (Homo sapiens, UniProt Q04912).
T6 construct: AssayQuant Technologies, Inc. (assay service)
The following applies: 1 μM test article, 1 mM ATP. The procedure, abridged: as §1

The target of assay [9] is T7, GSK3A (Homo sapiens, UniProt P49840).
T7 construct: AssayQuant Technologies, Inc. (service provider)
The settings on record: 1 μM test article, 1 mM ATP. The procedure, abridged: as §1

Assay [10] concerns the target PKN3 (Homo sapiens, UniProt Q6P5Z2). The following applies: 1 μM test article, 1 mM ATP. Put shortly: as §1
For assay [11], the target named is FGFR1 (Homo sapiens, UniProt P11362). The following applies: 1 μM test article, 1 mM ATP. Put shortly:
as §1

[12] abbreviates: PTK2B, 1 μM test article, 1 mM ATP, read-out: % Inhibition.

T5 sequence (P43250 whole entry, species assumed): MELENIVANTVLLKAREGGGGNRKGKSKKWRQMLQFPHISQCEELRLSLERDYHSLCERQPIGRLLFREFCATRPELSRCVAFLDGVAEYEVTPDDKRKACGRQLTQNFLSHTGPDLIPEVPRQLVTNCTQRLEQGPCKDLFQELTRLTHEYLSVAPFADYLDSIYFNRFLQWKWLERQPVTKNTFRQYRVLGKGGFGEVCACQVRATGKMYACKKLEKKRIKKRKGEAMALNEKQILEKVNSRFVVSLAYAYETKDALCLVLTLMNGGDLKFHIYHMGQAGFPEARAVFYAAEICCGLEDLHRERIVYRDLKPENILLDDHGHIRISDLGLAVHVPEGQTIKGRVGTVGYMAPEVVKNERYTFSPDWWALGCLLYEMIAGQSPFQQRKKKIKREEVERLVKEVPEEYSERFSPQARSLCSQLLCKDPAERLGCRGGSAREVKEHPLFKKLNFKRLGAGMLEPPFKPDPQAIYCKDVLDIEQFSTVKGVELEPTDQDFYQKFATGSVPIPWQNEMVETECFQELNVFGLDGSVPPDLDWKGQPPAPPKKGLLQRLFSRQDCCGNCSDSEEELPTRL
T1 sequence (P17948 27-1338, species assumed): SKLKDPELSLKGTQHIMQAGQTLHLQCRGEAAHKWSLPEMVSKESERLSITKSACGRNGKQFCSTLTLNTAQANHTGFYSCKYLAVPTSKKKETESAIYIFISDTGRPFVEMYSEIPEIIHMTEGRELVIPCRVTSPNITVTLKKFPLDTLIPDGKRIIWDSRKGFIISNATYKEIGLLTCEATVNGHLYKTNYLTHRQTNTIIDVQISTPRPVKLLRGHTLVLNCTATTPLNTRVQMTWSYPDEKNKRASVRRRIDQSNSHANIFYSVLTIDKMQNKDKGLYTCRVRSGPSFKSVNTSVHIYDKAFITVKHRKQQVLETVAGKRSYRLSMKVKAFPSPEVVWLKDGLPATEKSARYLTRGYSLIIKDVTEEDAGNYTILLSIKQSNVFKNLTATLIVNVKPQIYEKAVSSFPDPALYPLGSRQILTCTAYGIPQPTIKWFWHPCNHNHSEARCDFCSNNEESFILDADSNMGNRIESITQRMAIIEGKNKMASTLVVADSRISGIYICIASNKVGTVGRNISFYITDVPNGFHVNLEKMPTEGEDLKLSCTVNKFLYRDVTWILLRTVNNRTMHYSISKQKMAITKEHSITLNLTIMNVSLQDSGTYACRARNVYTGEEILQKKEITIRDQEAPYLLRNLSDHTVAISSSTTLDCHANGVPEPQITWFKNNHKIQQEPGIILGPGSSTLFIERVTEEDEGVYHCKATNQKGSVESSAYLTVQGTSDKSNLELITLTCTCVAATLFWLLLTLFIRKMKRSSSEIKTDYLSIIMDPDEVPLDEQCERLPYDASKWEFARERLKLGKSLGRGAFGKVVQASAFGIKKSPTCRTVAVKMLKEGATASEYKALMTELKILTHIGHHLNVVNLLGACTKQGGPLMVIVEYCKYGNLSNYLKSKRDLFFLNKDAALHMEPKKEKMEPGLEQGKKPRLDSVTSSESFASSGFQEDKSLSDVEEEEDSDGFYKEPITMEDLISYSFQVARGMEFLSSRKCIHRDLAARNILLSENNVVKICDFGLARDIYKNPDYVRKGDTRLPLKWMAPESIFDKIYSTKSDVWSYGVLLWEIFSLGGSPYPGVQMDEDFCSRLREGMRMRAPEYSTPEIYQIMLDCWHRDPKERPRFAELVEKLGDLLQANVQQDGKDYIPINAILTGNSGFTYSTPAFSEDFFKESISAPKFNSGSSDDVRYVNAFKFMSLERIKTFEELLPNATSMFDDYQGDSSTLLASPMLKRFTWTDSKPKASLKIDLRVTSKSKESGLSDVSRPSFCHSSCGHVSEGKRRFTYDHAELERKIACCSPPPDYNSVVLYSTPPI
PKN3, sequence (Q6P5Z2 whole entry, species assumed): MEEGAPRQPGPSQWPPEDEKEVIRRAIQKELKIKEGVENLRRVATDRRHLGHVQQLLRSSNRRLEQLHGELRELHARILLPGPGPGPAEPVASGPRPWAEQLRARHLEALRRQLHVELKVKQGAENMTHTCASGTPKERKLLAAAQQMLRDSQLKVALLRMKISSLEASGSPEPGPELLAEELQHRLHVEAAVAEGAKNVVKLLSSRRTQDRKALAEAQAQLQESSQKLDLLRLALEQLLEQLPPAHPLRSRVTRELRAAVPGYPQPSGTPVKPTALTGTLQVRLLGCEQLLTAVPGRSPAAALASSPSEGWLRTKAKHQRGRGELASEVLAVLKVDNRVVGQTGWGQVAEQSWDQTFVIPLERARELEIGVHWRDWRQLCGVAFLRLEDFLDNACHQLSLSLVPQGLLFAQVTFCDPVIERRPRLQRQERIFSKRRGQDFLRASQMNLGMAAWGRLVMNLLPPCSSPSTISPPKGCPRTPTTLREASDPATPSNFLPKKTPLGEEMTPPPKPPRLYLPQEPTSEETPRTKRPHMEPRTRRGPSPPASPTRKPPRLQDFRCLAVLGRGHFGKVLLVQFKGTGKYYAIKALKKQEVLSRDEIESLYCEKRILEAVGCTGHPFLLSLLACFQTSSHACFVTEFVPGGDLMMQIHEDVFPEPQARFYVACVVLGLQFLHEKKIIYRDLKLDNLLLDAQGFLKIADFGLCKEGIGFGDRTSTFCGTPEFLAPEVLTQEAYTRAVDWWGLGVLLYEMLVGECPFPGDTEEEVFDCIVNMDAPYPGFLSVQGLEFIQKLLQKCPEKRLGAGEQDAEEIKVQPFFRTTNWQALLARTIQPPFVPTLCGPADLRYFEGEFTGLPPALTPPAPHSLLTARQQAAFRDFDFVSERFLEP
LYNB, sequence (P07948 1-491 isoform P07948-2, species assumed): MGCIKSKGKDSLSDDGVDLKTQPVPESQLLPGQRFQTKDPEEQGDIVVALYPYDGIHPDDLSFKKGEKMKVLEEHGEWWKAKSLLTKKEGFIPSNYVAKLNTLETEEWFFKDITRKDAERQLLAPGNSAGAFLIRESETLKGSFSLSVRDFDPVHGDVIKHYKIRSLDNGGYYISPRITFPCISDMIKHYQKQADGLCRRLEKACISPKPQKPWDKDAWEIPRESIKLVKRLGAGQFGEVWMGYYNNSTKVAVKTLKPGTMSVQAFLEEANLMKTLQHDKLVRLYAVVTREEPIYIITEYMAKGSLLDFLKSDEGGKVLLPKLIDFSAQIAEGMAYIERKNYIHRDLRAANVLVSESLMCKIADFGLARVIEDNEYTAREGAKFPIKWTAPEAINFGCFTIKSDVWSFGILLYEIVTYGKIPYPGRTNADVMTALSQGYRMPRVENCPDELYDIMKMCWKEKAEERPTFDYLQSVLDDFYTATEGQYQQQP

In the case of `C=CC(=O)N1CCC[C@@H](c2c(F)cc(C(N)=O)c3[nH]c4c(c23)CCC4)C1` [Compound 10-2, (S)-8-(1-acryloylpiperidin-3-yl)-7-fluoro-1,2,3,4-tetrahydrocyclo-penta[b]indole-5-carboxamide], the inhibition at 1 µM in assay [1] was 8.6%; in assay [2], 1.7%; in assay [3] (setting [12]), -8.8%; in [4], 23.2%; in [5] it was -12.6%; in assay [6], 12.8%. For the same molecule, the inhibition at 1 µM is -1.9% in assay [7]; -2.5% in [8]; -37.7% in assay [9]; 3.5% in assay [10]; 8.7% in assay [11].
As for `C=CC(=O)N1CCCC(c2c(F)cc(C(N)=O)c3[nH]c4c(c23)CCCCC4)C1` (single isomer, unassigned) [Compound 5-6], the inhibition at 1 µM in [1] was 12.1%; in assay [2], 8.1%; in assay [3] (setting [12]) it was -16.1%; in assay [4], 8.9%; in assay [5], 3.7%; in assay [6] it was -5.8%. Also, the inhibition at 1 µM in [7] was 8%; in assay [8], -2.4%; in [9] it was 2.9%; in [10], 5.7%; in assay [11] it was 18.4%.
Regarding `C=CC(=O)N1CCC[C@@H](c2c(F)cc(C(N)=O)c3[nH]c4c(c23)CC2(CC4)CC2)C1` [Compound 6-2, (S)-5-(1-acryloylpiperidin-3-yl)-6-fluoro-1,2,4,9-tetrahydrospiro[carbazole-3,1′-cyclopropane]-8-carboxamide], the inhibition at 1 µM was 20.7% in [1]; -10.2% in [2]; -15.4% in assay [3]; 28.9% in [4]; 8.6% in [5]; -4.3% in [6]. Moreover, the inhibition at 1 µM in [7] is -3.1%; in assay [8] it was -0.6%; in [9] it was -5.1%; in assay [10] it was -9.4%; in assay [11] it was 6.6%.

The term inhibition denotes the change of the read-out against control, counted positive when it falls.
